The values below are quoted from earlier work in US8298564B2, “Two part antimicrobial boot” (Medtronic, Inc., priority 2006, dated 2012).

Experiment in data set [1]: not given
This is another data set of the same source.

For `CO[C@H]1/C=C/O[C@@]2(C)Oc3c(C)c(O)c4c(O)c(c(/C=N/N5CCN(C)CC5)c(O)c4c3C2=O)NC(=O)/C(C)=C\C=C\[C@H](C)[C@H](O)[C@@H](C)[C@@H](O)[C@@H](C)[C@H](OC(C)=O)[C@@H]1C` [rifampin], the “degradation under steam sterilization” value is on record as “fairly stable”. The “degradation or loss in antimicrobial activity of rifampin-containing devices treated with ethylene oxide” value in data set [1] (devices containing rifampin treated with ethylene oxide, reported by numerous studies) is “no detectable degradation or no loss in antimicrobial activity”. Besides, the “degradation on ethylene oxide sterilization, as discovered in U.S. patent application Ser. No. 11/535,762” value in data set [1] (ethylene oxide sterilization) is “substantial degradation”.

As to `CN(C)c1ccc(O)c2c1C[C@H]1C[C@H]3[C@H](N(C)C)C(O)=C(C(N)=O)C(=O)[C@@]3(O)C(O)=C1C2=O` [minocycline], the “degradation under steam sterilization” value is recorded as “degrades to unacceptable levels”. In addition, in data set [1] (ethylene oxide sterilization), the “degradation with ethylene oxide sterilization” value is listed as “does not appear to substantially degrade”.
